Laboratory results reported in US20100119595A1, “Monounsaturated fatty acids and perhydrocyclopentanophenanthrene nucleus combination molecules, and their precursors, and the use of all of these as weight-loss agents” (priority 2001, published 2010).
Marks after values point to notes of the source that are not given here.

Key:
[1] = Dog weight-loss study, 2 hydroxyestrone oleate vs oleoyl-estrone (Example 10); assay type: in vivo; settings: oral 21 days, 5, 3.33 or 2.5 micromoles/kg vs OE 10 micromoles/kg
Text: Dogs are selected and initial measurements taken. The initial measurements include weight and electrical impedance for each dog as measured by a standard impedance measuring device with electrodes placed between the front and rear paws. The dogs are placed individually in appropriate cages and allowed an ad libitum diet of standard dog chow and water for a 10-day period. Daily measurements include the following: • 1. Weight • 2. Weight of food consumed • 3. Water consumed, both volume and weight
Every other day, the dogs' electrical impedance is measured as an indicator of fat tissue content and loss. The dogs remain confined with out of cage activity or exercise for the duration of the experiment. This initial 10-day period establishes a pattern and average of weight gain, impedance change, and food and water consumption for each dog. […] This assures the dogs will readily accept the bread ball as a drug delivery device. […]
An appropriate volume of either OE or 2HOE is placed into the center of a thick piece of dense sweet bread (non-porous), carefully rolled into a small ball so none of the compound leaks out, and sprinkled on the outer surface with sugar or syrup as determined above. […] Electrical impedance of each dog is measured every other day.

[2] = Rat study of 2 hydroxyestrone oleate (Example 12); assay type: in vivo, Osborne Mendle rats; settings: rats, oral gavage 21 days, 10, 5, 3.33 or 2.5 micromoles/kg
Protocol: Osborne Mendle rats are selected as the study subjects due to their propensity to gain fat when fed a high fat diet. An initial measurement of body weight is performed on each rat. The rats are placed individually in appropriate cages and allowed an ad libitum diet of standard rat chow and water for a 10-day period. During this 10-day period the rats are gavaged daily with 0.1 cc volume of sunflower oil to allow them to become comfortable with being handled and receiving the gavage tube (it takes about 10 days for this acclimation to occur, and is important so that the animals are not stressed by the gavage). Daily measurements include the following: • 1. Weight • 2. Weight of food consumed • 3. Spillage • 4. Water consumed, both volume and weight The rats remain confined and are denied out-of-cage activity or exercise for the duration of the experiment other than normal daily activity confined to the cage. This initial 10 day period establishes a pattern and average of weight gain, to acclimate the animals to the gavage procedure, and determine the average food and water consumption for each rat. […]
At the end of the study, rats are anesthetized then sacrificed via guillotine. […] Weight of the uterus is determined. […]

[3] = Rabbit 10-day oral study: body weight and food consumed (Example 1); settings: for FINAL WT.: one rabbit; for WT. Δ w/ Rx 10 days: control +0.14
Protocol: During the first 3 weeks, rabbits were only weighed and allowed to eat. On the fourth week, all rabbits were given 0.05 cc dose of peanut oil.
Five New Zealand white rabbits were obtained and caged in their natural environment (outside) and fed a cafeteria, ad libitum diet of rabbit chow. […] The appropriate weights of OE or EE were diluted in peanut oil to provide concentrations as follows: 1) OE, 2 mg/0.05 cc; 2) EE, 1 mg/0.05 cc; 3) 0.33 mg/0.05 cc; 4) EE, 0.1mg/0.05 cc, 5) EE, 0.03 mg/0.05 cc
For the initial three weeks, the rabbits were given no medicine or oil. Body weight and food consumed were measured daily; establishing a daily average for food consumed and weight change.
Rabbits received the assigned dose for 10 consecutive days. Rabbit weight (kg) and food eaten (grams) were determined daily.

[4] = Rabbit study at mole/kg dose equivalent to that used for oleoyl-estrone in rats; assay type: in vivo, rabbits
Text: The eicosenoic acid-estrogen monoesters mimic the function of the naturally occurring fatty acid monoester, estrone monooleate, as a signal that informs the brain of the size of fat tissue mass. When administered to rabbits, they produce weight reduction of about 20%, by a) decreasing food intake and b) by a new and unexpected mechanism. Eicosenoic acid-estrogen monoesters are useful for the treatment of obesity and/or overweight in mammals, with the advantages of high efficacy and low toxicity.

[5] = EE 1 mg/d vs OE 2 mg/d, oral, rabbits

With CCCCCCCC/C=C\CCCCCCCC(=O)Oc1cc2c(cc1O)[C@H]1CC[C@]3(C)C(=O)CC[C@H]3[C@@H]1CC2 [2HOE, 2 hydroxyestrone oleate] the “weight loss compared with dogs receiving oleoyl-estrone” value [1] was “greater weight loss”, the “body weight &/or body fat” value [2] was “reduction of body weight &/or body fat” and the food consumption [2] was “reduction in food consumption”.
For CCCCCCCC/C=C\CCCCCCCCCC(=O)Oc1ccc2c(c1)CC[C@@H]1[C@@H]2CC[C@]2(C)C(=O)CC[C@@H]12 [EE, estrone eicosenoate], the “FINAL WT.” value ([3]; EE 0.03 mg/d oral in peanut oil, 10 days, initial wt 4.00 kg) was 4.17* kg, the “WT. Δ w/ Rx 10 days” value ([3]; EE 0.03 mg/d oral, 10 days, pre-Rx 10 day avg. +0.125) was “+0.17 kg” and the “FOOD/DAY AVG. w/ Rx” value ([3]; EE 0.03 mg/d oral, 10 days, pre-Rx avg 163.6) was 158.5 grams. The “FINAL WT.” value ([3]; EE 0.2 mg/d oral in peanut oil, 10 days, initial wt 3.50 kg) was 3.56 kg, the “FOOD/DAY AVG. w/ Rx” value ([3]; EE 0.2 mg/d oral, 10 days, pre-Rx avg 151.1) was 131.0 grams and the “FINAL WT.” value ([3]; EE 0.33 mg/d oral in peanut oil, 10 days, initial wt 4.09 kg) was 4.01 kg. The “WT. Δ w/ Rx 10 days” value ([3]; EE 0.33 mg/d oral, 10 days, pre-Rx 10 day avg. +0.139) was −0.08 kg, the “FOOD/DAY AVG. w/ Rx” value ([3]; EE 0.33 mg/d oral, 10 days, pre-Rx avg 151.6) was 150.4 grams and the “FINAL WT.” value ([3]; EE 1 mg/d oral in peanut oil, 10 days, initial wt 3.73 kg) was 3.37 kg. For the same molecule, the “WT. Δ w/ Rx 10 days” value ([3]; EE 1 mg/d oral, 10 days, pre-Rx 10 day avg. +0.129) was −0.36 kg, the “FOOD/DAY AVG. w/ Rx” value ([3]; EE 1 mg/d oral, 10 days, pre-Rx avg 138.3) was 31.9 grams and the “amount of food eaten relative to the OE rabbit” value [3, 5] was “approximately ⅓”. For the same molecule, the “weight loss relative to OE over a 10-day period” value [3, 5] was “more than three times the weight loss”, the “weight gained compared with the Control rabbit” value ([3]; EE at 1/10 the dose of OE (0.2 mg/d), 10 days) was “less than half the weight gained by the Control rabbit” and the “weight gained compared with the control” value ([3]; EE at lowest dose (0.03 mg/d), 10 days) was “gained more weight than even the control”. For the same molecule, the “weight loss less than that resulting from OE” value ([3]; EE at ⅙ the dose of OE (0.33 mg/d vs 2 mg/d), 10 days) was 20%, the “greater reduction in appetite in rabbits than oleoyl-estrone did in rats” value [4] was 50% and the “greater weight loss in rabbits than oleoyl-estrone did in rats” value [4] was 60%.
